Test results: US20240255419A1, “MOLECULAR PROBES FOR MAPPING BIOLOGICAL ACTIVITY” (Trustees of Boston University, priority 2023, published 2024)

What was measured:
SJSA-1 cells = experiment: induction of apoptosis for activating caspase-3/7; format: cell-based
Excerpt: Other than phosphatase, we profiled caspase-3/7 activity in live cancer cells.

[1] = tested on: alkaline phosphatase (ALP); conditions: standard substrate, identical conditions
ATP synthetase = experiment: cellular uptake mechanism, NBD fluorescence of NBD-Phos-CN(S); format: cell-based; conditions: 5 μM inhibitor, cells with NBD-Phos-CN(S)
Excerpt: Considering the high sensitivity and resistance to photobleaching, we conducted real-time monitoring of dephosphorylation reaction in cells by MIP imaging as Phos-CN(S) is introduced to the cells. […] The Nanoparticles formed by the amphiphilic nitrile chameleons may escape from endosomes through endosomal membrane disruption or perforation. The variation in phosphatase activity patterns at different time points is attributed to the dynamic movements of cellular structures within live cells. As previously discussed, the nanofilaments intertwine with cellular structures, causing the nanofilaments to move along with these structures. Furthermore, we utilized NBD-Phos-CN(S) to study the cellular uptake mechanism of nitrile chameleons because NBD fluorescence cannot distinguish between substrate and product.

caspase-3 (active) = target: T1, caspase-3 (active) (Homo sapiens, UniProt P42574); experiment: enzymatic conversion efficiency by caspase-3 (active), time-course of product formation; format: biochemical; conditions: standard substrate, identical conditions
T1 sequence (P42574 29-175 limits assumed): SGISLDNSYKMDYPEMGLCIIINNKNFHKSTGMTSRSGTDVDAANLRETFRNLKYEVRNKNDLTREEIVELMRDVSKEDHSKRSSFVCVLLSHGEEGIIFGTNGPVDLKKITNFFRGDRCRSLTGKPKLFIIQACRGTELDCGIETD
T1 sequence (P42574 176-277 limits assumed): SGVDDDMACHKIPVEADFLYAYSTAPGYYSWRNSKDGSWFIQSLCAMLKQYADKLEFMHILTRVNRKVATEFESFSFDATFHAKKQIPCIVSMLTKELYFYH

`COc1cccc2c1C(=O)c1c(O)c3c(c(O)c1C2=O)C[C@@](O)(C(=O)CO)C[C@@H]3O[C@H]1C[C@H](N)[C@H](O)[C@H](C)O1` [Doxorubicin] was tested, and the apoptosis induction (SJSA-1 cells) was “efficiently induces apoptosis”.

For `O=[N+]([O-])c1ccc(OP(=O)(O)O)cc1` [P-nitrophenyl phosphate], the “initial speed (v0)” value [1] was 0.53 nmol/min.

For `CC[C@H]1/C=C/C=C/C[C@@H](C)[C@H](O)[C@@](C)(O)C(=O)[C@@H](C)[C@H](O)[C@@H](C)C(=O)[C@@H](C)[C@H](O)[C@@H](C)/C=C/C(=O)O[C@@H]2[C@H](C)[C@H](CC1)O[C@]1(CC[C@H](C)[C@H](C[C@@H](C)O)O1)[C@H]2C` [oligomycin], the “NBD fluorescence inside the cells” value (ATP synthetase) was “significantly reduced”.

Ac-DEVD-pNA was tested, and the “initial speed (v0)” value (caspase-3 (active)) was 0.33 nmol/min.
